Assays:
CYP1B1 mRNA = experiment: Gene expression analysis (qPCR) in MDA-MB-468 cells; assay type: cell-based, human; settings: 1.0 μM, 6 h
Experimental: (§1) These analogues were specifically chosen because they were synthesised without the production of regioisomers, their structural differences are small while their biological differences are large, c.f. […] Neither analogue altered the expression of SULT1A1 (Figure 4D).
(§2) Gene expression was examined in MDA-MB-468 cells following 6 h treatment. Total RNA was extracted using the RNeasy Mini Kit (Qiagen) according to the manufacturer’s instructions. One µg of RNA was reverse transcribed using the QuanitTect Reverse Transcription Kit (Qiagen) according to the manufacturer’s instructions. Rotor-Gene SYBR Green PCR Kit (Qiagen) was used to perform qPCR on a Rotor-Gene 3,000 Thermo-Cycler Instrument using β2-microglobulin as a housekeeping gene (Qiagen). The primer sequences were purchased from Qiagen as follows: AhR (QT02422938), CYP1A1 (QT00012341), CYP1B1 (QT00209496), SULT1A1 (QT01665489), and β2M (QT00088935). HotStar Taq activation (95 °C for 5 min) was followed by 40 cycles of denaturation (95 °C for 5 s), and annealing/extension (60 °C for 10 s). The comparative Ct value method was used for data analysis. Results are presented as the mean ± standard error of the mean (SEM) of analysis conducted in duplicate and repeated on two separate occasions. Significant test results were determined using T-test analysis at p < 0.01 with a two tail distribution.

CYP1A1 mRNA = experiment: as above; assay type: cell-based, human; settings: 1.0 μM, 6 h
Experimental: as §1, §2

AhR = molecular target: T1, AhR (Homo sapiens, UniProt P35869); experiment: AhR transcription reporter assay (HT29-Lucia AhR cells); assay type: cell-based; settings: 24 h
T1 construct: This cell line stably expresses the secreted Lucia luciferase reporter gene under the control of a minimal promoter; host or cells: HT29-Lucia AhR reporter cells
T1 sequence (P35869 11-848): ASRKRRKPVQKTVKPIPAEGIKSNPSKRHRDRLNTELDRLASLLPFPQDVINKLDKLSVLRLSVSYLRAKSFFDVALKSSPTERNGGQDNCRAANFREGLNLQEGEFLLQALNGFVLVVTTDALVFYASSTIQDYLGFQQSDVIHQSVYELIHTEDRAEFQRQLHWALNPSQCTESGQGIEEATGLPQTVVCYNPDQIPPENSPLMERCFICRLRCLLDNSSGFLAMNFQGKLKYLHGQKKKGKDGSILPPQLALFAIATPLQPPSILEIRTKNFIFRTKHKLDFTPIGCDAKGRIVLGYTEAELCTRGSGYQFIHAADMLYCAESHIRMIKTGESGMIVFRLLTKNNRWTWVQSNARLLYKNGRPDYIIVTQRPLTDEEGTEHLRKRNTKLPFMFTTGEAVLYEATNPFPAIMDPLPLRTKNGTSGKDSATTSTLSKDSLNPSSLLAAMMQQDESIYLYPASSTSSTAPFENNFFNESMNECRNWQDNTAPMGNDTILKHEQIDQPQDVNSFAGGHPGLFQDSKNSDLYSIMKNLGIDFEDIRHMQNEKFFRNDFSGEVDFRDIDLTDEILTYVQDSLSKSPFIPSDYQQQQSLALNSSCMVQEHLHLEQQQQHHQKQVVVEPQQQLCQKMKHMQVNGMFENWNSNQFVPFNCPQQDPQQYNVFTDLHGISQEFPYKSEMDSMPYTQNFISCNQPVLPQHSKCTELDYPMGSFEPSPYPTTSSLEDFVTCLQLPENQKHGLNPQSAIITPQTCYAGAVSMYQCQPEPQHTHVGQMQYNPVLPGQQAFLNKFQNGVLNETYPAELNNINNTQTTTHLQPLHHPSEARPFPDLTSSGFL
Description: Our previous studies have shown that the activity of NAP-6 (2) and 10-Cl-BBQ (3) required the activation of the AhR pathway and the induction of CYP1 family of phase I metabolising enzymes ([Gilbert et al., 2020]; [Baker et al., 2021a]). Therefore, we sought to determine the activation of AhR using a stable AhR reporter assay in HT29-Lucia™ AhR cells, in the presence of each BBQ analogue (Figure 3). Activation of the AhR was indicated by enhanced luminescence caused by the translocation of the AhR to the nucleus of the cell and interaction with the xenobiotic response elements imbedded in the luciferase gene.
Stock solutions were prepared as follows and stored as 20 mM DMSO solutions at −20 °C. All cell lines were cultured in a humidified atmosphere 5% CO2 at 37 °C. The cancer cell lines were maintained in Dulbecco’s modified Eagle’s medium (DMEM) (Trace Biosciences, Australia) supplemented with 10% foetal bovine serum (FBS), 10 mM sodium bicarbonate, penicillin (100 IU/mL), streptomycin (100 μg/mL), and glutamine (4 mM). The non-cancer MCF10A cell line was cultured in DMEM:F12 (1:1) cell culture media, 5% heat inactivated horse serum, supplemented with penicillin (50 IU/mL), streptomycin (50 μg/mL), 20 mM Hepes, L-glutamine (2 mM), epidermal growth factor (20 ng/mL), hydrocortisone (500 ng/mL), cholera toxin (100 ng/mL), and insulin (10 μg/mL). The AhR reporter cell line HT29-Lucia™ (Invivogen, United States) was maintained in DMEM supplemented with 10% heat inactivated FBS, L-glutamine (2 mM), penicillin (100 IU/mL), streptomycin (100 μg/mL), 100 μg/mL Normocin™, and 100 μg/mL of the selective antibiotic Zeocin™. All cell lines were purchased from the American Type Culture Collection (ATCC), except for A2780 and A431 which were from the European Collection of Authenticated Cell Cultures (ECACC), and SJ-G2 cell line which was from Dr Mary Danks, St Jude Children’s Research hospital, Memphis, TN.
The activity of the AhR signalling pathway was measured using the stably transfected AhR cell line, HT29-Lucia™ (Invivogen, United States). This cell line stably expresses the secreted Lucia luciferase reporter gene under the control of a minimal promoter coupled with the human CYP1A1 gene entire regulatory sequence, containing six DREs. The Lucia luciferase reporter protein is readily measurable in the cell culture supernatant using QUANTI-Luc™. For the determination of AhR activity, 4 × 10^4 cells in 180 μL was plated into each well of a 96 well micro-titre plate in the absence of antibiotics and allowed to culture for 24 h prior to the addition of test compounds in a volume of 20 μL. At the indicated time, 20 μL of cell supernatant was transferred to a white luminometer plate and 50 µL of QUANTI-Luc was added immediately prior to reading the luminescence using a GloMax Explorer Luminescence Plate Reader. The promoter activity was conducted in duplicate and the values expressed as fold-change relative to DMSO (0.1%) treated cells. The AhR ligand, FICZ (6-formylindolo[3,2-b]carbazole) and AhR inhibitor CH223191 were included for study as positive and negative controls, respectively. […] Results are presented as the mean ± standard error of the mean (SEM) of analysis conducted in duplicate and repeated on three separate occasions.

[1] = tested on: broad panel of cancer cell lines and non-cancer breast cell line MCF10A; settings: ref Gilbert et al., 2017; Gilbert et al., 2020; cited from earlier work
[2] = Solubility in the compound testing media; assay type: physicochemical
[3] = tested on: MCF10A normal breast cells; experiment: MTT growth inhibition with CYP1 (αNF) or SULT1A1 (quercetin) inhibitor; assay type: cell-based, human; settings: 3 and 5 at 0.1 µM, αNF 10 µM, quercetin 5 µM, 72 h (Supp Figure 1)
Experimental: This analysis confirms that both CYP1 and SULT1A1, activity is needed to induce the growth inhibitory effect of the BBQ analogue.
Cells in logarithmic growth were transferred to 96-well plates. Cytotoxicity was determined by plating cells in duplicate in 100 μL medium at a density of 2,500–4,000 cells/well in 96 well plates. On day 0, (24 h after plating) when the cells were in logarithmic growth 100 μL medium with or without the test agent was added to each well. After 72 h drug exposure growth inhibitory effects were evaluated using the MTT (3-[4,5-dimethylthiazol-2-yl]-2,5-diphenyltetrazolium bromide) assay with absorbance read at 540 nm. An eight-point dose response curve was produced, using MS Excel software. From these dose-response curves, the GI50 value was calculated, representing the drug concentration at which cell growth is 50% inhibited based on the difference between the optical density values on day 0 and those at the end of drug exposure ([Bradshaw et al., 2008]; [Zhang et al., 2009]). Each data point was conducted in duplicate and the mean ± S.E.M. calculated from four to five replicates (n = 4 or 5), which were performed on separate occasions and separate cell line passages. Where shown, significant test results were determined using T-test analysis at p < 0.01 and p < 0.05 with a two tail distribution.
Supp Figure 1. CYP1 and SULT1A1 inhibition ameliorates the effect of 3 and 5. Growth inhibition (72 h, MTT assay) of 3 and 5 (0.1 µM) in the presence of the CYP1 family inhibitor, α-naphthoflavone (αNF, 10 µM) and SULT1A1 inhibitor, quercetin (qu, 5 µM) in (A) MDA-MB-468 breast cancer cells and (B) MCF10A normal breast cells. Significant differences are at the P < 0.01 ** level, using a paired T-test with a two-tailed distribution.

6-formylindolo[3,2-b]carbazole [FICZ, reference compound]
CYP1B1 Fold change (mRNA vs DMSO control) (CYP1B1 mRNA): 3.7 fold | CYP1A1 Fold change (mRNA vs DMSO control) (CYP1A1 mRNA): 19 fold | AhR activation, Fold Reporter Induction (AhR; 0.5 μM, positive control): 2.7 fold

Cc1ccccc1N=Nc1ccc(NC(=O)c2ccnn2C)c(C)c1 [CH223191, reference compound]
AhR activation, Fold Reporter Induction (AhR; 2.5 μM, negative control): 0.7 fold

N#C/C(=C\c1ccc[nH]1)c1ccc(Cl)c(Cl)c1 [Compound 1, (Z)-2-(3,4-dichlorophenyl)-3-(1H-pyrrol-2-yl)acrylonitrile]
selective targeting of certain breast cancer cell lines compared with normal breast cells or other tumour types (fold) [1]: more than 500 fold

O=c1c2cccc3cccc(c32)c2nc3c(Cl)cc(Cl)cc3n12 [Compound 6, 10,12-Dichloro-7H-benzo[de]benzo[4,5]imidazo[2,1-a]isoquinolin-7-one]
melting point: 292 to 294 °C | solubility in the compound testing media [2]: insoluble

O=c1c(O)c(-c2ccc(O)c(O)c2)oc2cc(O)cc(O)c12 [quercetin, reference compound]
effect on growth in normal MCF10A cells [3]: Neither 3, 5, αNF, or quercetin affected growth

O=c1cc(-c2ccccc2)oc2c1ccc1ccccc12 [α-naphthoflavone, reference compound]
effect on growth in normal MCF10A cells [3]: Neither 3, 5, αNF, or quercetin affected growth
